One block for each compound: values may come before it.
Key:
[1] = Circular dichroism (secondary structure); assay type: physicochemical; conditions: 25 μM peptide in water, room temperature, 195-250 nm
Experimental: Circular dichroism (DC). CD spectra were gathered on an Aviv model 202 spectropolarimeter. Samples were prepared by diluting stock peptide solutions in water (0.5%) to a working concentration of 25 μM. Samples were analysed at room temperature in a quartz cuvette with a path length of 0.3 cm and in the wavelength range 195-250 nm.
Circular dichroism. CD spectra were obtained for each peptide sequence to assess its secondary structure. The secondary structure identifies ordered structures within a polypeptide such as α-helices and β-sheets. […] (Havel, 1996).

[2] = test system: human aortic endothelial cells (HAEC); test: HAEC monolayer formation on peptide scaffolds; assay type: cell-based; set-up: key to HAEC monolayer formation, peptide content 100% / HAEC monolayer formation, Blending (9:1): +: Score for optimal monolayer formation and cell survival; −: Score for poor or none monolayer formation and cell survival; conditions: for HAEC monolayer formation, Blending (9:1): RAD16-I: peptide sequence at a ratio 9:1 (v/v); for HAEC monolayer formation, peptide content 100%: scaffold of 100% peptide, 0.5% (w/v); for HAEC monolayer formation, peptide blends: 9:1 RAD16-I:modified peptide, seeded subconfluent (~30%)
Experimental: Endothelial cell culture system. Peptide scaffolds (0.5% w/v) were prepared at 100% peptide sequence for RAD16-I or blended with RAD16-I at a radio of 9:1 (RAD16-I: peptide sequence, on a volume/volume basis) for the three other cases (YIG, RYV, and TAG). Each solution was filtered (0.2 μm, Acrodysc filters, 4192, PALL, MI), loaded (30 μl) on top of a cell culture chamber insert (10 mm diameter, 136935, Nalge Nunc International, IL), and allowed to form a layer (average thickness=600 μm). Phosphate Buffer Saline (PBS) (600 μl) was added at the bottom of the well to induce hydrogel formation, and the system was incubated at room temperature for 30 min. PBS was replaced with culture medium, which was then replaced with fresh medium. The scaffolds were incubated for 1 hour with endothelial cell growth media (EGM-2, Cambrex, MD) in a cell culture incubator at 37° C. with 5% CO2.
(§1) Meanwhile, human aortic endothelial cells (HAEC) (CC-2535, Cambrex, MD) that had been maintained under standard culture conditions (passage 5-6) were harvested at 80% confluence using trypsin and loaded on top of the preformed peptide scaffolds at a cell density of 8×10^4 cells/cm^2 and cultured in the cell culture incubator at 37° C. with 5% CO2. Cell attachment assays were performed one hour after the initial cell loading. To perform the assays, the covering media was removed, and unattached cells were counted on a hematocytometer. Cell counting was performed by mechanically disrupting the scaffold containing cells by pipetting up and down and then counting cells on a hematocytometer after performing Trypan blue (T 9906, Sigma, MO) exclusion assay staining to assess cell viability. In some experiments, for comparison, EC were cultured on inserts coated with Matrigel or collagen (1.5 mg/ml, i.e. 0.15%) according to standard protocols.
In a first experiment, we tested the ability of HAEC to attach and form a monolayer when seeded on various peptide scaffolds generated by self-assembly of the peptides following addition of PBS to a 0.5%(w/v) solution of the peptide in water. […] HAEC cultured in the presence of scaffolds generated from peptides incorporating the other biologically active peptide motifs either died or formed isolated clusters (FIGS. 9A-9G).
We therefore decided to blend the peptides incorporating biologically active motifs with the prototypic RAD16-I sequence in order to reduce the overall concentration of the biologically active motif presented to cells. We selected a volume/volume ratio of 9:1 (RAD16-I:modified peptide sequence comprising biologically active peptide motif, where peptides were dissolved at equal concentrations on a w/w basis) and generated peptide scaffolds from solutions in which the unmodified and modified peptides were present in this ratio.

[3] = test system: human aortic endothelial cells (HAEC); test: NO release determination (Griess method); assay type: cell-based; conditions: nitrite in culture supernatant; RAD16-I 100%, others 9:1 blend
Experimental: NO release determination. Nitric oxide (NO) release was estimated by measuring nitrites (NOx) by the Griess method. Briefly, the media was replaced after the third day of culture by new media without fetal bovine serum (FBS) or ascorbic acid. The next day, the media was used to analyze NO release using a commercially available kit (482702, Calbiochem, CA) following the manufacturer instructions. Each condition was tested in triplicate.

[4] = test system: human aortic endothelial cells (HAEC); test: HAEC attachment assay on peptide scaffolds; assay type: cell-based; conditions: after one hour; modified peptides as 9:1 blends with RAD16-I
Experimental: as §1

chondrocytes = conditions: encapsulated cells; cited from earlier work
[5] = test system: PC12 cells, endothelial cells, heparin; conditions: cited from earlier work

- Secondary structure (CD) [1]: random coil
Compound: Ac-KAFDITYVRLKFGGRADARADARADARADA-NH2 [KAF, AcN-KAFDITYVRLKF-GG-(RADA)4-CONH2]
- HAEC monolayer formation, Blending (9:1) [2]: −
- HAEC monolayer formation, peptide content 100% [2]: −

- Secondary structure (CD) [1]: β-sheet
Compound: Ac-RYVVLPRGGRADARADARADARADA-NH2 [RYV, AcN-RYVVLPR-GG-(RADA)4-CONH2]
- nitric oxide (NO) release by HAEC [3]: inhibits NO release
- HAEC monolayer formation, peptide blends [2]: readily supported monolayer formation
- HAEC monolayer formation, Blending (9:1) [2]: +
- HAEC monolayer formation, peptide content 100% [2]: −
- HAEC attachment to the surface [4]: ~100%

- Secondary structure (CD) [1]: β-sheet
Compound: Ac-TAGSCLRKFSTMGGRADARADARADARADA-NH2 [TAG, AcN-TAGSCLRKFSTM-GG-(RADA)4-CONH2]
- nitric oxide (NO) release by HAEC [3]: promote NO release
- HAEC monolayer formation, peptide blends [2]: readily supported monolayer formation
- HAEC monolayer formation, Blending (9:1) [2]: +
- HAEC monolayer formation, peptide content 100% [2]: −
- HAEC attachment to the surface [4]: ~100%

Further lines, the compound ahead of its results:

Compound: CC(=O)N1CCC[C@H]1C(=O)N[C@@H](CC(=O)O)C(=O)N[C@@H](CO)C(=O)NCC(=O)N[C@@H](CCCNC(=N)N)C(=O)NCC(=O)NCC(=O)N[C@@H](CCCNC(=N)N)C(=O)N[C@@H](C)C(=O)N[C@@H](CC(=O)O)C(=O)N[C@@H](C)C(=O)N[C@@H](CCCNC(=N)N)C(=O)N[C@@H](C)C(=O)N[C@@H](CC(=O)O)C(=O)N[C@@H](C)C(=O)N[C@@H](CCCNC(=N)N)C(=O)N[C@@H](C)C(=O)N[C@@H](CC(=O)O)C(=O)N[C@@H](C)C(=O)N[C@@H](CCCNC(=N)N)C(=O)N[C@@H](C)C(=O)N[C@@H](CC(=O)O)C(=O)N[C@@H](C)C(N)=O [PDS, AcN-PDSGR-GG-(RADA)4-CONH2]
- Secondary structure (CD) [1]: β-sheet
- HAEC monolayer formation, Blending (9:1) [2]: −
- HAEC monolayer formation, peptide content 100% [2]: −

Compound: CC[C@H](C)[C@H](NC(=O)[C@H](Cc1ccc(O)cc1)NC(C)=O)C(=O)NCC(=O)N[C@@H](CO)C(=O)N[C@@H](CCCNC(=N)N)C(=O)NCC(=O)NCC(=O)N[C@@H](CCCNC(=N)N)C(=O)N[C@@H](C)C(=O)N[C@@H](CC(=O)O)C(=O)N[C@@H](C)C(=O)N[C@@H](CCCNC(=N)N)C(=O)N[C@@H](C)C(=O)N[C@@H](CC(=O)O)C(=O)N[C@@H](C)C(=O)N[C@@H](CCCNC(=N)N)C(=O)N[C@@H](C)C(=O)N[C@@H](CC(=O)O)C(=O)N[C@@H](C)C(=O)N[C@@H](CCCNC(=N)N)C(=O)N[C@@H](C)C(=O)N[C@@H](CC(=O)O)C(=O)N[C@@H](C)C(N)=O [YIG, AcN-YIGSR-GG-(RADA)4-CONH2]
- Secondary structure (CD) [1]: β-sheet
- nitric oxide (NO) release by HAEC [3]: promote NO release
- HAEC monolayer formation, scaffold of 100% peptide ([2]; 0.5% (w/v) peptide, no blending): able to support the formation of a monolayer
- HAEC monolayer formation, peptide blends [2]: readily supported monolayer formation
- HAEC monolayer formation, Blending (9:1) [2]: +
- HAEC monolayer formation, peptide content 100% [2]: +
- HAEC attachment to the surface [4]: ~100%

Compound: AcN-KLDLKLDLKLDL-CONH2 (Ac-KLDLKLDLKLDL-NH2) [KLD12]
- chondrocyte phenotype in hydrogel (chondrocytes): retained their morphology and developed a cartilage-like, mechanically functional ECM rich in proteoglycans and type-II collagen

Compound: CSRARKQAASIKVAVSADR
- Biological activity [5]: vessel formation

Compound: KAFDITYVRLKF
- Biological activity [5]: neurite outgrowth

Compound: PDGSR
- Biological activity [5]: Cell adhesion

From US7713923B2, “Self-assembling peptides incorporating modifications and methods of use thereof” (Massachusetts Institute of Technology, priority 2003, dated 2010)
